Legend:
[1] = system: Stagonospora nodorum; assay: Test D: wheat glume blotch, preventive spray on wheat seedlings; conditions: wheat glume blotch, 100 = 100% disease control, 0 = no control
[2] = system: Zymoseptoria tritici; assay: Test E: wheat leaf blotch, preventive spray on wheat seedlings; conditions: wheat leaf blotch, 100 = 100% disease control, 0 = no control
[3] = system: Puccinia recondita f sp. tritici; assay: Test F: wheat leaf rust, preventive spray on wheat seedlings; conditions: wheat leaf rust, 100 = 100% disease control, 0 = no control
Source text: General protocol for preparing test solutions for Tests A-G: the test compounds were first dissolved in acetone in an amount equal to 3% of the final volume and then suspended at the desired concentration (in ppm) in acetone and purified water (50/50 mix by volume) containing 250 ppm of the surfactant PEG400 (polyhydric alcohol esters). The resulting test suspensions were then used in Tests A-G. Compounds were sprayed at a concentration of 50 ppm (*) or 10 ppm to the point of run-off on the test plants, the equivalent of a rate of 200 g/ha or 40 g/ha, respectively.
The test solution was sprayed to the point of run-off on wheat seedlings. The following day the seedlings were inoculated with a spore suspension of Puccinia recondita f sp. tritici; (the causal agent of wheat leaf rust) and incubated in a saturated atmosphere at 20° C. for 24 h, and then moved to a growth chamber at 20° C. for 6 days, after which time visual disease ratings were made.
A dash (-) indicates no test results. Compounds with an asterisks (*) were applied at a concentration of 50 ppm, otherwise test solutions were applied at 10 ppm.

[4] = system: Erysiphe graminis f sp. tritici; assay: Test G: wheat powdery mildew, preventive spray on wheat seedlings; conditions: wheat powdery mildew, 100 = 100% disease control, 0 = no control
[5] = system: Botrytis cinerea; assay: Test B: gray mold, preventive spray on tomato seedlings; conditions: gray mold on tomato, 100 = 100% disease control, 0 = no control

SMILES | Test D rating (% disease control) ([1]; 10 ppm) [%] | Test E rating (% disease control) ([2]; 10 ppm) [%] | Test F rating (% disease control) ([3]; 10 ppm) [%] | Test G rating (% disease control) ([4]; 10 ppm) [%] | Test B rating (% disease control) ([5]; 10 ppm) [%] | Test D rating (% disease control) ([1]; 50 ppm (asterisk)) [%] | Test E rating (% disease control) ([2]; 50 ppm (asterisk)) [%] | Test F rating (% disease control) ([3]; 50 ppm (asterisk)) [%] | Test G rating (% disease control) ([4]; 50 ppm (asterisk)) [%] | Test B rating (% disease control) ([5]; 50 ppm (asterisk)) [%]
CC(C)(C)C(O)(Cn1cncn1)C1=NOC(c2cnccn2)C1 (single isomer, unassigned) [Compound 169] | 9 | 4 | 0 | 0 | 0 | – | – | – | – | –
CC(C)(C)CC(O)(Cn1cncn1)C1=NOC(COc2ccc(Br)cc2)C1 (single isomer, unassigned) [Compound 170] | 99 | 68 | 100 | 99 | 0 | – | – | – | – | –
CC(C)(C)C(O)(Cn1cncn1)C1=NOC(COc2ccc(F)cc2F)C1 (single isomer, unassigned) [Compound 21] | 100 | 0 | 100 | 99 | 9 | – | – | – | – | –
OC(Cn1cncn1)(C1=NOC(c2ccc(Br)cc2)C1)c1ccc(Cl)cc1 (single isomer, unassigned) [Compound 178] | 99 | 91 | 100 | 100 | 0 | – | – | – | – | –
CC(C)(C)C(O)(Cn1cncn1)C1=NOC(CSc2ccc(Cl)cc2)C1 (single isomer, unassigned) [Compound 27] | 59 | 0 | 68 | 89 | 51 | – | – | – | – | –
CC(C)(C)C(O)(Cn1cncn1)C1=NOC(COc2ccc(Br)cc2)C1 (single isomer, unassigned) [Compound 183] | 99 | 35 | 100 | 100 | 24 | – | – | – | – | –
CC(C)(C)C(O)(Cn1cncn1)C1=NOC(COc2ncc(Cl)cn2)C1 (single isomer, unassigned) [Compound 100] | 77 | 0 | 79 | 92 | 0 | – | – | – | – | –
OC(Cn1cncn1)(C1=NOC(c2cccc(Oc3ccccc3)c2)C1)c1ccc(Cl)cc1 (single isomer, unassigned) [Compound 176] | 82 | 2 | 100 | 100 | 0 | – | – | – | – | –
CC(C)(C)C(O)(Cn1cncn1)C1=NOC(COc2ccc(I)cc2)C1 (single isomer, unassigned) [Compound 184] | 100 | 94 | 100 | 100 | 44 | – | – | – | – | –
OC(Cc1ccccc1)(Cn1cncn1)C1=NOC(c2ccc(Cl)cc2)C1 (single isomer, unassigned) [Compound 121] | – | – | – | – | – | 100 | 62 | 100 | 100 | 100
OC(Cn1cncn1)(C1=NOC(c2ccc(-n3ccc(C(F)(F)F)n3)cc2)C1)c1ccc(Cl)cc1 (single isomer, unassigned) [Compound 149] | 0 | 38 | 36 | 76 | 0 | – | – | – | – | –
CCC(C)(C)C(O)(Cn1cncn1)C1=NOC(COc2ccc(Br)cc2)C1 (single isomer, unassigned) [Compound 12] | 68 | 57 | 99 | 96 | 0 | – | – | – | – | –
OC(Cn1cncn1)(C1=NOC(CSc2ccccc2)C1)c1ccc(Cl)cc1 (single isomer, unassigned) [Compound 50] | 87 | 3 | 99 | 94 | 19 | – | – | – | – | –
OC(Cn1cncn1)(C1=NOC(c2ccc(Cl)cc2)C1)C12CC3CC(CC(C3)C1)C2 (single isomer, unassigned) [Compound 40] | 51 | 0 | 55 | 48 | 0 | – | – | – | – | –
CC(C)(C)C(O)(Cn1cncn1)C1=NOC(COc2ccc(-n3cc(Cl)cn3)cc2)C1 (centres unmarked) [Compound 31] | 0 | 0 | 0 | 100 | 0 | – | – | – | – | –
CC(C)(C)C(O)(Cn1cncn1)C1=NOC(COc2ccc(OCc3ccccc3)cc2)C1 (single isomer, unassigned) [Compound 71] | 0 | 1 | 26 | 94 | 0 | – | – | – | – | –
CC(C)(C)C(O)(Cn1cncn1)C1=NOC(COCc2ccccc2)C1 (single isomer, unassigned) [Compound 60] | 73 | 3 | 28 | 90 | 0 | – | – | – | – | –
OC(Cn1cncn1)(C1=NOC(c2ccc(-n3ccc(C(F)(F)F)n3)cc2)C1)c1ccc(Cl)cc1 (single isomer, unassigned) [Compound 148] | 59 | 92 | 100 | 100 | 0 | – | – | – | – | –
CC(C)(C)C(O)(Cn1cncn1)C1=NOC(COc2ccc3c(c2)OCO3)C1 (single isomer, unassigned) [Compound 45] | 99 | 0 | 67 | 87 | 70 | – | – | – | – | –
OC(Cn1cncn1)(C1=NOC(c2ccc(Cl)cc2)C1)c1ccc(Oc2ccccc2)cc1 (single isomer, unassigned) [Compound 128] | – | – | – | – | – | 100 | 95 | 100 | 99 | 0
CSc1ccc(C2CC(C(O)(Cn3cncn3)c3ccc(Cl)cc3)=NO2)cc1 (single isomer, unassigned) [Compound 108] | 0 | 25 | 78 | 64 | 0 | – | – | – | – | –
OC(Cn1cncn1)(C1=NOC(COc2ccc(F)cc2)C1)c1ccc(Cl)cc1 (single isomer, unassigned) [Compound 163] | 0 | 0 | 99 | 86 | 0 | – | – | – | – | –
CCC(C)(C)C(O)(Cn1cncn1)C1=NOC(Cc2ccc(C(F)(F)F)cc2)C1 (single isomer, unassigned) [Compound 20] | 65 | 98 | 100 | 99 | 0 | – | – | – | – | –
OC(Cn1cncn1)(C1=NOC(c2ccc(F)cc2)C1)c1ccc(Cl)cc1 (single isomer, unassigned) [Compound 159] | 0 | 0 | 0 | 97 | 0 | – | – | – | – | –
CCCCC(O)(Cn1cncn1)C1=NOC(c2ccc(Cl)cc2)C1 (single isomer, unassigned) [Compound 155] | 100 | 2 | 100 | 100 | 0 | – | – | – | – | –
CC(C)(C)C(O)(Cn1cncn1)C1=NOC(Cc2ccc(Br)cc2)C1 (single isomer, unassigned) [Compound 52] | 100 | 4 | 100 | 100 | 98 | – | – | – | – | –
CC(C)(C)C(O)(Cn1cncn1)C1=NOC(Cc2ccc(Cl)c(Cl)c2)C1 (single isomer, unassigned) [Compound 23] | 97 | 89 | 100 | 100 | 0 | – | – | – | – | –
CC(C)(C)C(O)(Cn1cncn1)C1=NOC(COc2ccc(-n3cccn3)cc2)C1 (single isomer, unassigned) [Compound 29] | 49 | 0 | 0 | 99 | 0 | – | – | – | – | –
